Consider two molecules from publication PMC4977651, “Molecular features of biguanides required for targeting of mitochondrial respiratory complex I and activation of AMP-kinase” (BMC Biology, 2016).

Where “and” joins values, the source holds several entries; their conditions need not be identical. Equal entries are not always repeated.

For assay [1], the system named is mouse heart mitochondria. Kind of assay: ADP-stimulated rotenone-sensitive OCR in isolated mouse heart mitochondria. The format is biochemical. Further details: rotenone sensitive OCR after ADP stimulation, individual replicates / rotenone sensitive OCR after ADP stimulation, average / rotenone sensitive OCR after 15 mins, average: unit not given here. The note with it: for rotenone sensitive OCR after ADP stimulation, % of control, average / rotenone sensitive OCR after ADP stimulation, average: average of replicates; for rotenone sensitive OCR after ADP stimulation, % of control, individual replicates: replicate 1-11; for rotenone sensitive OCR after ADP stimulation, individual replicates: replicate 1-12. As to the method: (§1) Complex I and mitochondrial membranes were prepared from Bos taurus (bovine) heart. Intact mitochondria were isolated from rat liver and mouse heart and liver. Membranes were prepared from mouse heart mitochondria by 5 s bursts of sonication at 4 °C and collected by centrifugation (75,000 × g, 1 h).
Isolated mitochondria were monitored using a Seahorse XF96 extracellular flux analyzer at 32 °C. Mouse heart mitochondria, and mouse and rat liver mitochondria were plated into XF96 plates at 4 and 16–20 μg per well, respectively, in 220 mM mannitol, 70 mM sucrose, 10 mM KH2PO4, 5 mM MgCl2, 1 mM EGTA, 0.2 % fatty acid-free BSA, and 2 mM HEPES (pH 7.4 at 37 °C) with 10 mM glutamate and 10 mM malate and adhered by centrifugation (2000 × g, 20 min, 4 °C). The medium was supplemented with a further 5 mM glutamate and 5 mM malate and the mitochondria incubated for 15 min. Then two baseline readings were taken before the biguanides were added at IC50/5. […] Rotenone (2 μM) was added at the end of the experiment. Data from wells with failed port injections were excluded from the analyses. The RCR values (state III versus state IV respiration) were 3.4, 4.8, and 4.6 for mouse heart, rat liver, and mouse liver, respectively.

The target in assay [2] is bovine heart mitochondrial membranes (complex I) (Bos taurus, UniProt P03887+P03898+P17694+P42026). The assay is described as follows: NADH:O2 oxidoreduction by bovine heart mitochondrial membranes (complexes I-III-IV). It is filed as biochemical. As to the method:
as §1
Assays were performed at 32 °C in a SpectraMax 96-well plate reader. NADH:decylubiquinone oxidoreduction by complex I at 0.5 μg mL^−1 was measured in 20 mM Tris-HCl (pH 7.2), 0.15 % soy bean asolectin (Avanti Polar Lipids), and 0.15 % 3-((3-cholamidopropyl)dimethylammonium)-1-propanesulfonate (CHAPS, Merck Chemicals Ltd), with 200 μM decylubiquinone and 200 μM NADH, and monitored using ε340–380(NADH) = 4.81 mM^−1 cm^−1 [23]. Catalysis was initiated by addition of NADH and maximal rates determined by linear regression. NADH:O2 oxidoreduction by membranes was measured similarly but using 5 μg mL^−1 membranes in 10 mM Tris-HCl (pH 7.4) and 250 mM sucrose using 200 μM NADH and supplemented with 0.15 mM horse heart cytochrome c (Sigma-Aldrich Ltd.). Succinate:O2 oxidoreduction was measured using 40 μg mL^−1 membranes in 5 mM succinate in 10 mM Tris-HCl (pH 7.4) as described previously. Control experiments included NaCl (to match the ionic strength) or DMSO, as appropriate.
Experimental values are reported as mean averages ± standard deviation (SD) of technical replicates for large sample sizes and mean averages ± standard error of the mean (SEM) of technical replicates for small sample sizes. Data were analyzed by the unpaired two-tailed Student’s t test. IC50 values were determined using the standard dose-effect relationship (activity (%) = 100 × IC50 / (IC50 + [inhibitor]^m) with the Hill Slope (m) set to unity for purified complex I) and are reported with 95 % confidence intervals.

In assay [3] the test system is rat liver mitochondria. Kind of assay: ADP-stimulated rotenone-sensitive OCR in isolated rat liver mitochondria. The format is biochemical. The note with it: for rotenone sensitive OCR after ADP stimulation, % of control, average / rotenone sensitive OCR after ADP stimulation, average: average of replicates; for rotenone sensitive OCR after ADP stimulation, % of control, individual replicates / rotenone sensitive OCR after ADP stimulation, individual replicates: replicate 1-5. Further details: rotenone sensitive OCR after ADP stimulation, individual replicates / rotenone sensitive OCR after ADP stimulation, average: unit not given here. The protocol:
as §1
Isolated mitochondria were monitored using a Seahorse XF96 extracellular flux analyzer at 32 °C. Mouse heart mitochondria, and mouse and rat liver mitochondria were plated into XF96 plates at 4 and 16–20 μg per well, respectively, in 220 mM mannitol, 70 mM sucrose, 10 mM KH2PO4, 5 mM MgCl2, 1 mM EGTA, 0.2 % fatty acid-free BSA, and 2 mM HEPES (pH 7.4 at 37 °C) with 10 mM glutamate and 10 mM malate and adhered by centrifugation (2000 × g, 20 min, 4 °C). The medium was supplemented with a further 5 mM glutamate and 5 mM malate and the mitochondria incubated for 15 min. Then two baseline readings were taken before the biguanides were added at IC50/5. Biguanides were allowed to accumulate for 15–20 min before respiration was […] by the addition of 4 mM ADP. Rotenone (2 μM) was added at the end of the experiment. Data from wells with failed port injections were excluded from the analyses. The RCR values (state III versus state IV respiration) were 3.4, 4.8, and 4.6 for mouse heart, rat liver, and mouse liver, respectively.

Assay [4] has as its system permeabilized MDBK cells. Kind of assay: ADP-stimulated rotenone-sensitive OCR in permeabilized MDBK cells. The format is cell-based, Bos taurus. On the set-up: rotenone sensitive OCR after ADP stimulation, average / rotenone sensitive OCR after ADP stimulation: unit not given here. The note with it: MDBK permeabilised cells; for rotenone sensitive OCR after ADP stimulation, % of control, average / rotenone sensitive OCR after ADP stimulation, average: average of replicates; for rotenone sensitive OCR after ADP stimulation / rotenone sensitive OCR after ADP stimulation, % of control: individual replicates. The protocol:
For permeabilized cell experiments, cells were seeded into XF96 plates at 0.9–1.1 × 10^4 per well and incubated for 48 h at 37 °C in 5 % CO2. Then, the growth medium was exchanged for assay buffer containing 3 nM plasma membrane permeabilizer ‘PMP’ (Seahorse Biosciences Inc.), 10 mM glutamate, 10 mM malate, 220 mM mannitol, 70 mM sucrose, 10 mM KH2PO4, 5 mM MgCl2, 1 mM EGTA, 0.2 % fatty acid-free bovine serum albumin (BSA), and 2 mM HEPES (pH 7.4 at 37 °C). […] The biguanides were allowed to accumulate for 30 min, then respiration was […] by the addition of 4 mM ADP. Rotenone was added (2 μM) at the end of the experiment.
Rotenone-sensitive OCRs were calculated by subtracting the rotenone-insensitive rates (determined at the end of the experiment). OCRs were normalized by dividing by the OCR recorded immediately prior to the addition of biguanide. For rate of uptake calculations, the OCRs at time points after biguanide addition were divided by the OCRs at the same time points in control experiments. Data from wells with failed port injections were excluded from the analyses. The respiratory control ratio (RCR) values (state III versus state IV respiration) were ~11 and ~6 for permeabilized MDBK and 143B cells, respectively.

Chain of bovine heart mitochondrial membranes (complex I) (P42026 38-216): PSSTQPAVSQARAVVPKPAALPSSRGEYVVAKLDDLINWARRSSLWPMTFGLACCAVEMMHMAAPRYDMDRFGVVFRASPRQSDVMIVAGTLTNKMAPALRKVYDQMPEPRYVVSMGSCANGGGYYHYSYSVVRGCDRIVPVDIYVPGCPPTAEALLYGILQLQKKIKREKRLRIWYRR
Chain of bovine heart mitochondrial membranes (complex I) (P17694 34-463): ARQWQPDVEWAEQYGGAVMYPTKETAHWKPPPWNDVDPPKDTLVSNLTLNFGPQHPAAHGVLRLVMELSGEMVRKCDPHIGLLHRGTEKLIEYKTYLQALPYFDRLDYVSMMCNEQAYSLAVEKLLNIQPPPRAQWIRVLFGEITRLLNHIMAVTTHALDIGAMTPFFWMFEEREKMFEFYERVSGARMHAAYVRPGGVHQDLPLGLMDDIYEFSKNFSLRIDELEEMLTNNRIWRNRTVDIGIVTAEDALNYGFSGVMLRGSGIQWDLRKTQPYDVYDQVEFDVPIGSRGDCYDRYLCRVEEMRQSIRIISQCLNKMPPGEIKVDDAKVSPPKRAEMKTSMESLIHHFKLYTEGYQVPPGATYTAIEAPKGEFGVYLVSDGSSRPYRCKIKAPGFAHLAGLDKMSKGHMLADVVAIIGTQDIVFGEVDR
Chain of bovine heart mitochondrial membranes (complex I) (P03887 whole entry): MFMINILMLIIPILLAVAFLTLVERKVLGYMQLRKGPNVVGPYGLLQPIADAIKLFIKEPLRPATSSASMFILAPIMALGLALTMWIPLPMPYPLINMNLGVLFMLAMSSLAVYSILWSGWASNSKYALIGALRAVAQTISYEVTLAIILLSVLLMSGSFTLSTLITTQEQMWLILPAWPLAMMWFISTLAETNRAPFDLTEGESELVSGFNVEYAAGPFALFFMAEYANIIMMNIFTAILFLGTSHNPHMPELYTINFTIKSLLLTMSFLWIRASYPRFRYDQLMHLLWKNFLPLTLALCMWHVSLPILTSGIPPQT
Chain of bovine heart mitochondrial membranes (complex I) (P03898 whole entry): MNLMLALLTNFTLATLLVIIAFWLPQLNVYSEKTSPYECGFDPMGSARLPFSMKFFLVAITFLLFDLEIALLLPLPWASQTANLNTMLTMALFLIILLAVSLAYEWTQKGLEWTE

One may read the IC50 as the point on the concentration scale where inhibition reaches its midpoint. As for `NC(N)=NC(N)=NCCc1ccc(Cl)cc1` [compound 1, 2-[2-(4-chlorophenyl)ethyl]-1-(diaminomethylidene)guanidine], in assay [1], the “rotenone sensitive OCR after ADP stimulation, % of control, average” value (shortened to “rotenone sensitive OCR … % of control, average”) is given as 42.96 % of control; the “rotenone sensitive OCR after ADP stimulation, average” value was determined as 104.05; the “rotenone sensitive OCR after ADP stimulation, % of control, individual replicates” value is 59.58 % of control and 56.94 % of control and 47.63 % of control and 43.78 % of control and 42.25 % of control and 48.37 % of control and 28.35 % of control and 16.80 % of control; the “rotenone sensitive OCR after ADP stimulation, individual replicates” value was 144.30 and 137.90 and 115.35 and 106.02 and 102.33 and 117.15 and 68.67 and 40.69. Moreover, the remaining activity at 25 µM in assay [2] (bovine heart mitochondrial membranes, inhibitor 0.025 mM, read-out: average % (rate, % of no-inhibitor control)) was found to be 91.4%. In assay [2] (bovine heart mitochondrial membranes, inhibitor 0.05 mM, read-out: average % (rate, % of no-inhibitor control)), the remaining activity at 50 µM is 77.5%. The remaining activity at 120 µM in assay [2] (bovine heart mitochondrial membranes, inhibitor 0.12 mM, read-out: average % (rate, % of no-inhibitor control)) came to 66.8%. For the same molecule, the remaining activity at 250 µM in assay [2] (bovine heart mitochondrial membranes, inhibitor 0.25 mM, read-out: average % (rate, % of no-inhibitor control)) worked out at 57.4%. In addition, the remaining activity at 500 µM in assay [2] (bovine heart mitochondrial membranes, inhibitor 0.50 mM, read-out: average % (rate, % of no-inhibitor control)) came out at 44.1%. Besides, the remaining activity at 1000 µM in assay [2] (bovine heart mitochondrial membranes, inhibitor 1.00 mM, read-out: average % (rate, % of no-inhibitor control)) amounted to 35.1%. The remaining activity at 2000 µM in assay [2] (bovine heart mitochondrial membranes, inhibitor 2.00 mM, read-out: average % (rate, % of no-inhibitor control)) was 28.9%. Further, the “LogIC50 (best fit value)” value in assay [2] (log of concentration in mM, sample given as Bovine heart mitochondrial membranes, Prism variable slope fit, Bottom 0, Top 100) is -0.4001. Further, in assay [2] (sample given as Bovine heart mitochondrial membranes, Prism log(inhibitor) vs. response variable slope fit (four parameters), Bottom 0, Top 100, read-out: IC50 (best fit value)), the IC50 came to 398 µM. For the same molecule, in assay [2] (sample given as Bovine heart mitochondrial membranes, Prism variable slope fit, Bottom 0, Top 100), the “HillSlope (best fit value)” value is on record as -0.6555. Also, in assay [3], the “rotenone sensitive OCR … % of control, average” value was 55.19 % of control; the “rotenone sensitive OCR after ADP stimulation, average” value is 15.13; the “rotenone sensitive OCR after ADP stimulation, % of control, individual replicates” value is 67.97 % of control and 49.70 % of control and 53.49 % of control and 49.59 % of control; the “rotenone sensitive OCR after ADP stimulation, individual replicates” value is 18.64 and 13.63 and 14.67 and 13.60. In assay [4], the “rotenone sensitive OCR … % of control, average” value is listed as 20.60 % of control and the “rotenone sensitive OCR after ADP stimulation, average” value was 58.06. In assay [4] (biguanide at IC50/5), the “rotenone sensitive OCR … % of control, average” value is given as 20.60 % of control; the “rotenone sensitive OCR after ADP stimulation, average” value stood at 58.06; the “rotenone sensitive OCR after ADP stimulation” value was 88.38 and 76.77 and 21.79 and 44.14 and 38.29 and 53.63 and 83.42; the “rotenone sensitive OCR after ADP stimulation, % of control” value was 31.36 % of control and 27.24 % of control and 7.73 % of control and 15.66 % of control and 13.59 % of control and 19.03 % of control and 29.60 % of control.

Turning to `[H]/N=C(/N)N/C(=N/[H])NCCc1ccccc1` [phenformin, reference compound], the “rotenone sensitive OCR after 15 mins, average” value in assay [1] (ADP and phenformin added simultaneously, n = 8) is recorded as 418.601. Further, in assay [1] (ADP and phenformin added simultaneously, n = 8 with phenformin, n = 6 control), the “rotenone sensitive OCR after 15 mins, % control (no phenformin)” value is 85 ± 10 % control and 85.2397 % control. In assay [1], the “rotenone sensitive OCR … % of control, average” value is on record as 30.06 % of control; the “rotenone sensitive OCR after ADP stimulation, average” value was 73.69; the “rotenone sensitive OCR after ADP stimulation, % of control, individual replicates” value is 34.41 % of control and 27.92 % of control and 37.45 % of control and 23.80 % of control and 31.47 % of control and 29.88 % of control and 25.27 % of control and 30.29 % of control; the “rotenone sensitive OCR after ADP stimulation, individual replicates” value is 84.35 and 68.44 and 91.80 and 58.33 and 77.13 and 73.26 and 61.95 and 74.26. The “oxygen consumption, % of the control value” in assay [1] (phenformin at IC50/5 accumulated in the absence of ADP before ADP stimulation) was found to be 30%. Moreover, in assay [3], the “rotenone sensitive OCR … % of control, average” value is reported as 22.17 % of control; the “rotenone sensitive OCR after ADP stimulation, average” value worked out at 6.08; the “rotenone sensitive OCR after ADP stimulation, % of control, individual replicates” value was 23.43 % of control and 20.89 % of control and 22.08 % of control and 22.26 % of control; the “rotenone sensitive OCR after ADP stimulation, individual replicates” value is 6.42 and 5.73 and 6.05 and 6.10. In assay [4], the “rotenone sensitive OCR … % of control, average” value is on record as 14.11 % of control and the “rotenone sensitive OCR after ADP stimulation, average” value turned out to be 39.76. Further, in assay [4] (biguanide at IC50/5), the “rotenone sensitive OCR … % of control, average” value is 14.11 % of control; the “rotenone sensitive OCR after ADP stimulation, average” value is on record as 39.76; the “rotenone sensitive OCR after ADP stimulation” value is 45.64 and 68.90 and 0.07 and 37.54 and 39.83 and 25.16 and 62.96 and 38.03; the “rotenone sensitive OCR after ADP stimulation, % of control” value is 16.19 % of control and 24.45 % of control and 0.025 % of control and 13.32 % of control and 14.13 % of control and 8.93 % of control and 22.34 % of control and 13.49 % of control.
